Test results as given in PubChem BioAssay AID2060503 (Molecular Pharmacology Branch, DTP, NCI, 2025).
pIC50: −log10 of the molar value.

Test system: 817829-284-R-J1-PDC complex spheroids, viability
Experiment: Anticancer human tumor 817829-284-R-J1-PDC patient-derived colon adenocarcinoma cell line growth inhibition [GQUAD]
Conditions: for pIC50: curve of first compound; for viability, T/C: stronger effect = lower value; active = viability on the fitted dose curve at most 10% of control; inactive = the rest
From the text: DNA G-quadruplex Stabilizer Agents in Combinations in Complex Spheroids
A high-throughput screen of multi-cell type tumor spheroids was designed to identify active combinations of DNA G-quadruplex stabilizer agents and targeted small molecules. Complex spheroids include a stromal component modeled by human endothelial cells (HUVEC) and fibroblasts modeled by human mesenchymal stem cells (MSCs). The concentration ranges selected for each drug and investigational agent were based upon clinically achievable concentrations if the clinical Cmax of the agent was known.
Compounds. The drugs and investigational agents: pidnarulex (CX-5461; NSC782164), APTO-253 (NSC789042), BRACO-19 (NSC847499), peposertib (NSC802822), ceralasertib (NSC780249), elimusertib (NSC800525), camonsertib (NSC841442), AZD-1390 (NSC803789), olaparib (NSC753686), talazoparib (NSC767125), ART-558 (NSC835418), sotorasib (NSC818433), MRTX-1133 (NSC836407), SN-38 (NSC673596), topotecan (NSC609699), etoposide (NSC141540), doxorubicin (NSC123127), gemcitabine (NSC613327), 5-fluorouracil (NSC19893), paclitaxel (NSC125973), vemurafenib (NSC761431), panobinostat (NSC761190), R-306465 (JNJ-16241199; NSC773264), adavosertib (NSC754352), TP-3654 (NSC805149), carboplatin (NSC241240), KSQ-4279 (NSC840948), and staurosporine (NSC755774) were obtained from the National Cancer Institute (NCI) Developmental Therapeutics Program Chemical Repository (34). The FDA-approved anticancer drug set is available from the NCI Developmental Therapeutics Program. […] The stock solutions were prepared in dimethyl sulfoxide (DMSO, Sigma-Aldrich, St. Louis, MO, cat. D2650) at 800-fold the tested concentration and stored at -70 degrees C prior to their use. All drugs and investigational agents were tested over a range starting from a high concentration at or near the clinical Cmax and decreasing in half-log increments. If the clinical Cmax for an agent had not been determined, the highest concentration tested was 10 microM.
2.3 Cell Culture. All cells were maintained in an incubator at 37 degrees C and 5% CO2 with 95% humidity. The PDC lines were cultured according to standard operating procedures established by the NCI PDMR. All PDCs were thawed and cultured in Matrigel-coated flasks prepared with a working solution of 1X Ham's F-12 nutrient mix, without supplementation (Invitrogen, cat. 11765054), 100 U/mL penicillin-streptomycin (Invitrogen, cat. 15140122), and 2.5% Matrigel (Corning Inc., cat. 354248) for the first three passages. The 857933-349-R-J2-PDC line was cultured in 6C/Colon 1B media, which includes advanced DMEM/F-12 (Thermo Fisher Scientific, cat. 12634028), 10 mM HEPES (Thermo Fisher Scientific, cat. 15630080), 1X GlutaMAX supplement (Thermo Fisher Scientific, cat. 35050061), 0.1 mg/mL primocin (InvivoGen, cat. ant-pm-2), 10% defined fetal bovine serum, heat inactivated (HyClone Laboratories Inc., cat. SH30070.03HI), 50% L-WRN conditioned media (ATCC, cat. CRL-3276), 1.25 mM N-Acetyl-L-cysteine (Sigma-Aldrich, cat. A9165), 10 mM nicotinamide (Sigma-Aldrich, cat. N0636), 1X B-27 supplement (Thermo Fisher Scientific, cat. 17504044), 1X N-2 supplement (Thermo Fisher Scientific, cat. 17502048), 10 microM Y-27632 dihydrochloride (Tocris Bioscience, cat. 1254), and 50 ng/mL human EGF recombinant protein (Thermo Fisher Scientific, cat. PHG0311). The 485176-168-R4-J1-PDC line was cultured in Panc media, which includes all 6C/Colon 1B media components plus 100 ng/mL human FGF-10 (Thermo Fisher Scientific, cat. 100-26), 500 nM SB-431542 (Selleckchem, cat. S1067), and gastrin (Tocris, cat. 3006).
[…]

[1] = second compound 0.0316 µM, first compound 0.0316 µM
[2] = second compound 0.0316 µM, first compound 0.316 µM
[3] = second compound 0.1 µM, first compound 0.0316 µM
[4] = second compound 0.1 µM, first compound 0.316 µM
[5] = second compound 0.316 µM, first compound 0.0316 µM
[6] = second compound 0.316 µM, first compound 0.316 µM
[7] = second compound 1 µM, first compound 0.0316 µM
[8] = second compound 1 µM, first compound 0.316 µM
[9] = second compound 3.16 µM, first compound 0.0316 µM
[10] = second compound 3.16 µM, first compound 0.316 µM
[11] = second compound 10 µM, first compound 0.0316 µM
[12] = second compound 10 µM, first compound 0.316 µM
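Also: spheroids exposed to agents for 7 days before readout.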
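For viability, T/C in this document: percent viability relative to DMSO vehicle control taken as 100%.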

CC(C)(O)C1CCC(Nc2ccc3ncc(-c4cccc(C(F)(F)F)c4)n3n2)CC1 (centres undefined) + CN(C)c1ccc(Nc2c3ccc(NC(=O)CCN4CCCC4)cc3nc3cc(NC(=O)CCN4CCCC4)ccc23)cc1
active: viability, T/C (second compound 10 µM, first compound 3.16 µM) 5.62% | viability, T/C (second compound 10 µM, first compound 10 µM) 2.44%
< 5.00: pIC50 (second compound 0.0316 µM)
5.59: pIC50 (second compound 0.316 µM)
5.50: pIC50 (second compound 0.1 µM)
5.68: pIC50 (second compound 3.16 µM)
5.93: pIC50 (second compound 10 µM)
5.65: pIC50 (second compound 1 µM)
inactive: viability, T/C [1] 102% | viability, T/C (second compound 0.0316 µM, first compound 0.1 µM) 100% | viability, T/C [2] 111% | viability, T/C (second compound 0.0316 µM, first compound 1 µM) 88.4% | viability, T/C (second compound 0.0316 µM, first compound 3.16 µM) 35.7% | viability, T/C (second compound 0.0316 µM, first compound 10 µM) 64.8% | viability, T/C [3] 98% | viability, T/C (second compound 0.1 µM, first compound 0.1 µM) 101% | viability, T/C [4] 90.3% | viability, T/C (second compound 0.1 µM, first compound 1 µM) 95.9% | viability, T/C (second compound 0.1 µM, first compound 3.16 µM) 39.9% | viability, T/C (second compound 0.1 µM, first compound 10 µM) 59.2% | viability, T/C [5] 97.5% | viability, T/C (second compound 0.316 µM, first compound 0.1 µM) 97% | viability, T/C [6] 86.8% | viability, T/C (second compound 0.316 µM, first compound 1 µM) 97.1% | viability, T/C (second compound 0.316 µM, first compound 3.16 µM) 33.4% | viability, T/C (second compound 0.316 µM, first compound 10 µM) 47.3% | viability, T/C [7] 92.9% | viability, T/C (second compound 1 µM, first compound 0.1 µM) 103% | viability, T/C [8] 95.8% | viability, T/C (second compound 1 µM, first compound 1 µM) 93.5% | viability, T/C (second compound 1 µM, first compound 3.16 µM) 28.9% | viability, T/C (second compound 1 µM, first compound 10 µM) 35.1% | viability, T/C [9] 96.5% | viability, T/C (second compound 3.16 µM, first compound 0.1 µM) 97.3% | viability, T/C [10] 87.9% | viability, T/C (second compound 3.16 µM, first compound 1 µM) 83.3% | viability, T/C (second compound 3.16 µM, first compound 3.16 µM) 31.6% | viability, T/C (second compound 3.16 µM, first compound 10 µM) 23.2% | viability, T/C [11] 96% | viability, T/C (second compound 10 µM, first compound 0.1 µM) 102% | viability, T/C [12] 87.2% | viability, T/C (second compound 10 µM, first compound 1 µM) 58.5%

CCc1c2c(nc3ccc(O)cc13)-c1cc3c(c(=O)n1C2)COC(=O)[C@]3(O)CC + CN(C)c1ccc(Nc2c3ccc(NC(=O)CCN4CCCC4)cc3nc3cc(NC(=O)CCN4CCCC4)ccc23)cc1
8.65: pIC50 (second compound 1 µM)
8.92: pIC50 (second compound 0.0316 µM)
8.84: pIC50 (second compound 0.1 µM)
8.56: pIC50 (second compound 3.16 µM)
8.69: pIC50 (second compound 10 µM)
inactive: viability, T/C (second compound 0.0316 µM, first compound 0.000999 µM) 50.9% | viability, T/C (second compound 0.0316 µM, first compound 0.00316 µM) 44.4% | viability, T/C (second compound 0.0316 µM, first compound 0.00999 µM) 32.1% | viability, T/C [1] 21.4% | viability, T/C (second compound 0.0316 µM, first compound 0.0999 µM) 10.8% | viability, T/C (second compound 0.1 µM, first compound 0.000999 µM) 54.2% | viability, T/C (second compound 0.1 µM, first compound 0.00316 µM) 40.1% | viability, T/C (second compound 0.1 µM, first compound 0.00999 µM) 34.6% | viability, T/C [3] 19.8% | viability, T/C (second compound 0.1 µM, first compound 0.0999 µM) 10.2% | viability, T/C (second compound 0.316 µM, first compound 0.000999 µM) 53.4% | viability, T/C (second compound 0.316 µM, first compound 0.00316 µM) 48.3% | viability, T/C (second compound 0.316 µM, first compound 0.00999 µM) 36.7% | viability, T/C [5] 19.2% | viability, T/C (second compound 1 µM, first compound 0.000999 µM) 61.1% | viability, T/C (second compound 1 µM, first compound 0.00316 µM) 44.1% | viability, T/C (second compound 1 µM, first compound 0.00999 µM) 32.5% | viability, T/C [7] 21.3% | viability, T/C (second compound 1 µM, first compound 0.0999 µM) 11.2% | viability, T/C (second compound 3.16 µM, first compound 0.000999 µM) 66.4% | viability, T/C (second compound 3.16 µM, first compound 0.00316 µM) 45.1% | viability, T/C (second compound 3.16 µM, first compound 0.00999 µM) 35% | viability, T/C [9] 23.7% | viability, T/C (second compound 3.16 µM, first compound 0.0999 µM) 12.2% | viability, T/C (second compound 10 µM, first compound 0.000999 µM) 60.8% | viability, T/C (second compound 10 µM, first compound 0.00316 µM) 42.9% | viability, T/C (second compound 10 µM, first compound 0.00999 µM) 28.7% | viability, T/C [11] 20.6% | viability, T/C (second compound 10 µM, first compound 0.0999 µM) 11.4%
active: viability, T/C [2] 6.33% | viability, T/C [4] 4.96% | viability, T/C (second compound 0.316 µM, first compound 0.0999 µM) 10.4% | viability, T/C [6] 5.53% | viability, T/C [8] 5.92% | viability, T/C [10] 6.09% | viability, T/C [12] 6.76%
8.66: pIC50 (second compound 0.316 µM)
